Results reported in US9592223B2, “Small molecule inhibitors of MALT1” (Cornell University, priority 2012, dated 2017).

Tests used:
[1] = target: T1, LZ-MALT1 (MALT1 (340-789) fused with a leucine zipper dimerization motif) (Homo sapiens, UniProt Q9UDY8); assay: LZ-MALT1 fluorescence assay (Ac-LRSR-AMC cleavage), screening and concentration response; format: biochemical
T1 construct: His tag (N); made in house; host or cells: E. coli
From the text: We reasoned that MALT1 small-molecule inhibitors might be useful chemical tools for studying MALT1 biology and treating MALT1 addicted tumors. However, full-length MALT1 and its paracaspase domain (amino acids 340-789) are naturally present in physiological solutions as a monomer, which has very low proteolytic activity. Caspases generally must homodimerize for maximal catalytic activity (Pop et al., 2006; Walker et al., 1994; Yin et al., 2006) and accordingly the recently reported structures of the paracaspase domain of MALT1 in complex with a peptide inhibitor are dimeric (Wiesmann et al., 2012; Yu et al., 2011). […]
Ac-LRSR-AMC was used as substrate and reactions were measured with excitation/emission wavelengths of 360/465 nm. […] The final percent inhibition was calculated with the formula: {[fluorescencetest compound(T2-T1)−fluorescenceneg ctrl(T2−T1)]/[fluorescencepos ctrl(T2−T1)−fluorescenceneg ctrl(T2−T1)]}×100. […]
The screening consisted of a 20 μl reaction in 384-well black plates (Greiner Bio One, Wemmel, Belgium, catalogue #784076) with 100 nM LZ-MALT1, 200 μM Ac-LRSR-AMC, and 12.5 μM test compound in buffer A (20 mM HEPES pH 7.5, 10 mM KCl, 1.5 mM MgCl2, 1 mM EDTA, 1 mM DTT, 0.01% Triton X-100). The reactions were measured with excitation/emission wavelengths of 360/465 nm using Envision Multilabel Reader (Perkin-Elmer, Waltham, Mass.). […]

LZ-MALT1 = target: T2, LZ-MALT1 (Homo sapiens, UniProt Q9UDY8); assay: Dose-effect and time-course of MALT1 inhibition (pre-incubation, then Ac-LRSR-AMC); format: biochemical; details: pre-incubation 5 to 80 minutes
T2 construct: His tag (N); made in house; host or cells: E. coli
Procedure: The reactions were monitored in a SpectraMax M5 plate reader (Molecular Devices, Sunnyvale, Calif. USA) with excitation/emission wavelength at 360/465 nm and 20 seconds intervals. Normalized percentage of inhibition was calculated with the following formula: (M(T2-T1)−N(T2-T1))/(P(T2-T1)−N(T2-T1))*100, where M(T2-T1) is the difference signal of compound at time point 200s and 0s, N(T2-T1) is the difference signal of negative control buffer only, P(T2-T1) is the difference signal of positive control Z-VRPR-FMK.

[2] = system: MALT1 dependent ABC-DLBCL cells HBL-1, TMD8, OCI-Ly3 and OCI-Ly10; assay: Growth inhibition, MALT1 dependent cell lines; format: cell-based, human; details: 50 μM, 48 hr
Procedure: (§1) Endogenous MALT1 activity was evaluated by Western blotting for A20, BCL10 and CYLD; and NF-κB activation, by phospho-IκB-α and total IκB-α. Dependence on MALT1 proteolytic activity for proliferation was tested by 50[…]μM Z-VRPR-FMK treatment for 48 hr. […] The U2932 and HLY1 ABC-DLBCL cell lines harbor mutations in TAK1 and A20, which activate NF-κB signaling downstream of MALT1.
(§2) Cell proliferation was determined by ATP quantification using a luminescent method (CellTiter-Glo, Promega, Madison, Wis.) and Trypan blue dye-exclusion (Sigma, St. Louis, Mo.). Cell viability in drug-treated cells was normalized to their respective controls (fractional viability) and results are given as 1-fractional viability. […]
(§3) DLBCL cell lines were grown in exponential growth conditions during the 48 hr of treatment. Cell proliferation was determined by ATP quantification using a luminescent method (CellTiter-Glo, Promega, Madison, Wis.) and Trypan blue dye-exclusion (Sigma, St. Louis, Mo.). Luminescence was measured using the Synergy4 microplate reader (BioTek Instruments, Winooski, Vt.). Standard curves for each cell line were calculated by plotting the cell number (determined by the Trypan blue method) against their luminescence values and number of cells was calculated accordingly. […]

[3] = system: ABC-DLBCL MALT1 independent cell lines U2932 and HLY-1; assay: Growth inhibition, MALT1 independent ABC-DLBCL cell lines; format: cell-based, human; details: 50 μM, 48 hr
Procedure: as §1, §2, §3

[4] = system: GCB-DLBCL cell lines OCI-Ly7 and OCI-Ly1; assay: Growth inhibition, GCB-DLBCL cell lines; format: cell-based, human; details: 50 μM, 48 hr
Procedure: as §1, §2, §3

c-REL = c-REL flow cytometry of whole cells or isolated nuclei, HBL-1 cells; format: cell-based, human; details: 200 nM MI-2 or 50 μM Z-VRPR-FMK, 24 hr
Procedure: MALT1 mediates c-REL translocation to the nucleus following BCR stimulation (Ferch et al., 2007). […] This selectivity towards c-REL had also been previously shown in MALT1 knockout mice and after MALT1 cleavage inhibition by the MALT1 blocking peptide Z-VRPR-FMK (Ferch et al., 2009; Ferch et al., 2007; Hailfinger et al., 2011).
[…] was studied by flow cytometry. Cells were treated as indicated and total cells or isolated nuclei were prepared and stained for c-REL. Total cells were fixed and permeabilized using the Intrastain kit from Dako (Glostrup, Denmark). For nuclei extraction, cells were resuspended in cold nuclei extraction buffer (320 mM sucrose, 5 mM MgCl2, 10 mM HEPES, 1% Triton X-100 at pH 7.4), incubated for 10 min on ice and washed twice with nuclei wash buffer (320 mM sucrose, 5 mM MgCl2, 10 mM HEPES at pH 7.4, no Triton X-100). Nuclei yield and integrity were confirmed by microscopic examination with trypan blue staining. For labeling, nuclei wash buffer was supplemented with 1% BSA, 0.1% sodium azide and 1:100 c-REL antibody (Cell Signaling). Cells were washed then incubated with Alexa Fluor-488 conjugated secondary antibodies from Invitrogen. Cells were washed again and stained with DAPI followed by flow cytometry.

[5] = system: MALT1^WT NF-κB activation; assay: NF-κB reporter assay in 293T cells, PMA/ionomycin, BCL10 and MALT1 WT; format: cell-based; details: pre-treatment
From the text: Antigen receptor-mediated NF-κB signaling partly depends on MALT1 activity (Ruefli-Brasse et al., 2003; Ruland et al., 2003). […] First, 293T cells were transfected with the NF-κB reporter vector (NF-κB)5-luc2CP-pGL4 (harboring 5 copies of the NF-κB consensus response element and a destabilized Firefly luciferase) and TK-pRL control together with plasmids expressing BCL10 and either MALT1^WT or MALT1^C464A. […] HBL-1 was transfected with the reporter construct (NF-κB)5-luc2CP-pGL4 and TK-pRL control.
Reporter assays were performed in 293T cells seeded at a density of 2×10^5 cells per well of a 12-well dish. 100 ng of (NF-κB)5-Luc2CP-pGL4 and 10 ng of TK-Renilla internal control plasmid were cotransfected along with 25 ng of the indicated plasmids (MIGR1-MALT1^WT or MIGR1-MALT1^C464A and pcDNA4-Flag-Bcl10) using Lipofectamine 2000 (Invitrogen). Lysates were submitted to dual luciferase assays following manufacturer's protocol (Promega). In HBL-1, 5 μg of (NF-κB)5-Luc2CP-pGL4 and 50 ng of TK-Renilla internal control plasmid per 5×10^6 cells were cotransfected using nucleofection (Amaxa, Lonza, Basel, Switzerland). Forty-eight hours after transfection, cells were plated at a density of 5×10^4 cells per well of a 24-well plate and treated as indicated. Lysates were submitted to dual luciferase assays following manufacturer's protocol (Promega).

T2 sequence (Q9UDY8 with tags, fused parts or gaps limits assumed): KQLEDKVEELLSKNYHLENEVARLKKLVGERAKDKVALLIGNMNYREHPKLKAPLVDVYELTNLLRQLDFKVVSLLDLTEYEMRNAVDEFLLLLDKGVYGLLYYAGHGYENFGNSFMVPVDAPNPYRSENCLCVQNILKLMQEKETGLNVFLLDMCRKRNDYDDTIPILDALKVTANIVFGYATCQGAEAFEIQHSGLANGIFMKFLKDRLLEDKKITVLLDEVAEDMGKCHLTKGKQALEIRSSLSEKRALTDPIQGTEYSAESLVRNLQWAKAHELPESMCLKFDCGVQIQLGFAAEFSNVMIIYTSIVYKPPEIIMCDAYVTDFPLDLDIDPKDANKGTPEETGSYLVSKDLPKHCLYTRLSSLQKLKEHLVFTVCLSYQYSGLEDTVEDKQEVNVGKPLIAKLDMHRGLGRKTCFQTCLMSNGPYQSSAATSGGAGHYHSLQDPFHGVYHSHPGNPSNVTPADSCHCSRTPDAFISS
T1 sequence (Q9UDY8 with tags, fused parts or gaps limits assumed): as above

COCCOc1nc(-c2cccc(OC)c2)n(-c2ccc(NC(=O)c3cccc([N+](=O)[O-])c3)cc2)n1 [MI-2A2]
biochemical IC50 (in words) [1]: lower IC50
kind of inhibition (time dependence) (LZ-MALT1): reversible inhibition
percent MALT1 inhibition reached (LZ-MALT1): ~50%

Z-VRPR-FMK [reference compound]
response of proliferation [2]: inhibition of proliferation
response of proliferation [3]: relatively little response
response of proliferation [4]: did not respond
nuclear c-REL (c-REL; isolated nuclei): reduced nuclear c-REL
whole cell c-REL (c-REL; whole cells): without affecting whole cell levels
NF-κB induction by PMA/ionomycin stimulation [5]: significantly inhibited NF-κB induction
